How the values were obtained:
[1] = OxPL/apoA in patients treated with JTT-705, then placebo; assay type: in vivo, human; details: nineteen patients; active treatment followed by placebo; FIG. 4
Experimental: Patients were then taken off the JTT-705 and placed on placebo. […] Add 50 μl/well. […] Leave at room temperature for 1-2 hours. Wash plate as above. […] Incubate at room temperature for 1 hour. Wash plate with cell washer set at 4 washes. […] Keep in the dark. Read in Chemiluminescence detector as relative light units (RLU). All assays are run in triplicate.

[2] = patients with coronary artery disease already on statins; measured before and after treatment; FIG. 3
Experimental: OxPL/apoA was then measured before and after the treatment.
Determine amount of OxPL on apoA1: Add an apo A-1 capture antibody such as Sheep anti-Human Apolipoprotein A-1 (The Binding Site, Birmingham, England) at 5-10 μg/ml to TBS buffer (or PBS) for overnight incubation at 4° C. Add 50 μl/well. The next day, wash plates with an automatic plate washer, 3 times 200 μl/well. Postcoat wells with 1% BSA/TBS@100 μl/well, 30-45 min, then wash before adding plasma. Add 50 μl plasma diluted to 1:50 in the appropriate well. For row “H” use 50 μl 1% BSA in TBS (Dilution buffer) as the blank. Leave at room temperature for 1-2 hours. Wash plate as above. Dilute the secondary antibody (biotinylated E06@1 μg/ml) and add 50 μl/well. After 1 hr at room temperature, wash plates as above. Prepare alkaline phosphatase labeled neutrAvidin (for biotin antibodies) or alkaline phosphatase labeled goat anti-rabbit IgG diluted in buffer containing activators (at 1:20 dilution. The activators keep the alkaline phosphatase antibodies consistent for months.) Add 50 μl to each well. Incubate at room temperature for 1 hour. Wash plate with cell washer set at 4 washes. Add 25 μl of detector for alkaline phosphatase, such as Lumi-phos 530 (keep sterile) diluted 1:1 in dist. water. Then leave at room temp. for 1.5-2 hr. Keep in the dark. Read in Chemiluminescence detector as relative light units (RLU). […]

In the case of `CCC(CC)CC1(C(=O)Nc2ccccc2SC(=O)C(C)C)CCCCC1` [JTT-705], the “OxPL/apoA change during treatment” value [1] is reported as “increased during the active treatment”.
In the case of `O=C(O)c1cccnc1` [niacin], the “OxPL/apoA change following treatment” value [2] is reported as “increased significantly”.

From patent US8883428B2, “Methods to determine atherosclerosis regression, plaque stabilization and cardiovascular risk” (The Regents of the University of California, priority 2009, dated 2014)
